The values that follow come from ChEMBL document CHEMBL1131330, “d-Fused [1]benzazepines with selective in vitro antitumor activity: synthesis and structure-activity relationships” (1998).

What all share (type): functional
The test system of experiment [1] is TK-10. The experiment can be described thus: Compound was tested for antitumor activity against TK-10 renal cancer cell line(molar concentration leading to 50% net cell death). The conditions noted are these: Homo sapiens.
For experiment [2], the system named is TK-10. The experiment can be described thus: Compound was tested for antitumor activity against TK-10 renal cancer cell line(molar concentration that inhibits 50% net cell growth). The conditions noted are these: Homo sapiens.
Experiment [3] concerns ACHN. The experiment can be described thus: Compound was tested for antitumor activity against ACHN renal cancer cell line(molar concentration leading to 50% net cell death). The following applies: Homo sapiens.
The subject of experiment [4] is 786-0. The experiment can be described thus: Compound was tested for antitumor activity against 786-0 renal cancer cell line(molar concentration leading to 50% net cell death). The following applies: Homo sapiens, read-out: Log LC50 (the source's name) (converted).
Experiment [5] concerns 786-0. The experiment can be described thus: Compound was tested for antitumor activity against 786-0 renal cancer cell line(molar concentration that inhibits 50% net cell growth). The following applies: Homo sapiens.
In experiment [6] the test system is ACHN. The experiment can be described thus: Compound was tested for antitumor activity against ACHN renal cancer cell line(molar concentration that inhibits 50% net cell growth). The conditions noted are these: Homo sapiens.

For orientation: GI50 means the concentration giving 50% growth inhibition. A low value points to more potent growth inhibition. The compound `SC1=Nc2ccc(Br)cc2-c2nc(-c3ccccc3)cc(-c3ccccc3)c2C1` had an LC50 (concentration causing 50% net cell death) in the experiment on TK-10 [1] of 18.6 µM. Further, the GI50 in the experiment on TK-10 [2] was 1.23 µM; with 786-0 [5], 1.17 µM; in the experiment on ACHN [6], 0.741 µM. In addition, in the experiment with ACHN [3], the LC50 (50% net cell death) was 8.51 µM. The CC50 in the experiment with 786-0 [4] was 7.08 µM.

For the compound `SC1=Nc2ccccc2-c2nc(-c3ccccc3)cc(-c3ccc(Br)cc3)c2C1`, the LC50 (concentration causing 50% net cell death) with TK-10 [1] was 7.76 µM. Also, the GI50 in the experiment on TK-10 [2] was 1.78 µM; with 786-0 [5] it was 0.631 µM; with ACHN [6], 0.871 µM. In the experiment on ACHN [3], this compound gave an LC50 (50% net cell death) of 5.89 µM. The CC50 in the experiment with 786-0 [4] was 4.47 µM.

`O=C1Cc2c(-c3ccccc3)cc(-c3ccccc3)nc2-c2ccccc2N1`: the LC50 (concentration causing 50% net cell death) in the experiment on TK-10 [1] is above 100 µM. Besides, the 50% growth inhibitory concentration (GI50) is 2.45 µM in the experiment with TK-10 [2], 4.17 µM in the experiment with 786-0 [5] and 4.07 µM with ACHN [6]. The LC50 (50% net cell death) in the experiment with ACHN [3] was 70.8 µM. Also, in the experiment with 786-0 [4], the CC50 is above 100 µM.

The compound `O=C1Cc2c(-c3ccc(Br)cc3)cc(-c3ccccc3)nc2-c2ccccc2N1` gave an LC50 (concentration causing 50% net cell death) in the experiment on TK-10 [1] of 2.24 µM. Moreover, the 50% growth inhibitory concentration (GI50) in the experiment with TK-10 [2] is 0.186 µM; with 786-0 [5], 1.62 µM; in the experiment on ACHN [6] it was 3.98 µM. Also, the LC50 (50% net cell death) in the experiment with ACHN [3] is 50.1 µM. Moreover, the CC50 in the experiment with 786-0 [4] was 9.55 µM.

`O=C1Cc2c(-c3ccccc3)cc(-c3ccccc3)nc2-c2cc(Br)ccc2N1`: the LC50 (concentration causing 50% net cell death) with TK-10 [1] was 9.12 µM. The 50% growth inhibitory concentration (GI50) in the experiment on TK-10 [2] was 0.427 µM; in the experiment on 786-0 [5], 0.631 µM; in the experiment on ACHN [6] it was 1.26 µM. Also, the LC50 (50% net cell death) in the experiment on ACHN [3] was 15.5 µM. In addition, the CC50 in the experiment with 786-0 [4] is 4.79 µM.

For the compound `SC1=Nc2ccccc2-c2nc(-c3cccc(Cl)c3)cc(-c3ccccc3)c2C1`, the LC50 (concentration causing 50% net cell death) in the experiment with TK-10 [1] is 9.55 µM. Also, the GI50 with TK-10 [2] was 0.437 µM; in the experiment on 786-0 [5], 0.977 µM; in the experiment on ACHN [6] it was 0.617 µM. The LC50 (50% net cell death) in the experiment with ACHN [3] is 19.1 µM. Moreover, the CC50 in the experiment with 786-0 [4] was 4.79 µM.

As for `O=C1Cc2c(-c3ccccc3)cc(-c3cccc(Cl)c3)nc2-c2ccccc2N1`, the LC50 (concentration causing 50% net cell death) in the experiment with TK-10 [1] was 17.4 µM. The GI50 with TK-10 [2] was 1.48 µM; in the experiment with 786-0 [5] it was 0.977 µM; in the experiment on ACHN [6], 1.15 µM. Further, the LC50 (50% net cell death) with ACHN [3] is 24.5 µM. Also, in the experiment with 786-0 [4], the CC50 was 5.37 µM.
